Measured values reported in patent US7838498B2, “Benzylic glycoside derivatives and methods of use” (Theracos, Inc., priority 2007, dated 2010).

Experiments:
[1] = molecular target: T1, human SGLT2 (Homo sapiens, UniProt P31639); assay: Methyl-α-D-[U-14C]glucopyranoside uptake assay, cells stably expressing human SGLT2; format: cell-based; conditions: HEK293.ETN cells expressing human SGLT2, 1.5 h incubation
T1 construct: A full-length cDNA clone expressing human SGLT2 (GenScript Corporation) was subcloned
T1 sequence (P31639 1-672): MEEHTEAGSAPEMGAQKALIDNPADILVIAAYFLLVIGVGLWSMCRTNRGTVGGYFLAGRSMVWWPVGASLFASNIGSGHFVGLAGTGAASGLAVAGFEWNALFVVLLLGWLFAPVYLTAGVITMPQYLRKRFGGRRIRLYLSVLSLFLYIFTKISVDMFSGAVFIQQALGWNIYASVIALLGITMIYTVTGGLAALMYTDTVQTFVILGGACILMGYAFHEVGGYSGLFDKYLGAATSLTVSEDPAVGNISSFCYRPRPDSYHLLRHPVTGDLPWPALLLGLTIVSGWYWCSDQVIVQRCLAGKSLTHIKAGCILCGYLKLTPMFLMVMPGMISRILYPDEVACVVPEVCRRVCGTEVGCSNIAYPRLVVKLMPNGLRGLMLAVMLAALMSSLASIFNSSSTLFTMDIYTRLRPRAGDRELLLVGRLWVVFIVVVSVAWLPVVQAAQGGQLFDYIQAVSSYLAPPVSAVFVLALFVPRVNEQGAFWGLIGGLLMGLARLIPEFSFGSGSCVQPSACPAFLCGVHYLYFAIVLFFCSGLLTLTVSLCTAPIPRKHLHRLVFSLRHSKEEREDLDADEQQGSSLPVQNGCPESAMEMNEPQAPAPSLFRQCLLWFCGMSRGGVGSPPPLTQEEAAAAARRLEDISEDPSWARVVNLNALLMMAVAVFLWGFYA
Text: A full-length cDNA clone expressing human SGLT2 (GenScript Corporation) was subcloned into […] and Not I sites of pEAK15 expression vector. Clones harboring the cDNA inserts were identified by restriction analysis.
Plasmid containing human SGLT2 was linearized with Nsi I and purified by agarose gel electrophoresis. Using Lipofectamine 2000 Transfection Reagent (Invitrogen Corporation), DNA was transfected into HEK293.ETN cells and cultured in Dulbecco's Modified Eagle Medium (DMEM) containing 10% fetal bovine serum (FBS) at 37° C. under 5% CO2 for 24 h. Transfectants were selected in the same growth medium supplemented with puromycin (Invitrogen Corporation) for two weeks. Puromycin-resistant cells were recovered and seeded on a fresh 96-well plate (single cell per well) and cultured in the presence of puromycin until cells became confluent. Puromycin-resistant clones were evaluated for SGLT2 activity in the methyl-α-D-[U-^14C]glucopyranoside uptake assay described below.
(§1) Cells expressing SGLT1 or SGLT2 were seeded on 96-well ScintiPlate scintillating plates (PerkinElmer, Inc.) in DMEM containing 10% FBS (1×10^5 cells per well in 100 μL medium) incubated at 37° C. under 5% CO2 for 48 h prior to the assay. Cells were washed twice with 150 μL of either sodium buffer (137 mM NaCl, 5.4 mM KCl, 2.8 mM CaCl2, 1.2 mM MgCl2, 10 mM tris(hydroxymethyl)aminomethane/N2-hydroxyethylpiperazine-N′-ethanesulfonic acid [Tris/Hepes], pH 7.2) or sodium-free buffer (137 mM N-methyl-glucamine, 5.4 mM KCl, 2.8 mM CaCl2, 1.2 mM MgCl2, 10 mM Tris/Hepes, pH 7.2). Test compound in 50 μL each of sodium or sodium-free buffer containing 40 μCi/L methyl-α-D-[U-^14C]glucopyranoside (Amersham Biosciences/GE Healthcare), either with (symbols in parentheses) or without (symbols without parentheses) 25% human serum, was added per well of a 96-well plate and incubated at 37° C. with shaking for either 2 h (SGLT1 assay) or 1.5 h (SGLT2 assay). Cells were washed twice with 150 μL of wash buffer (137 mM N-methylglucamine, 10 mM Tris/Hepes, pH 7.2) and methyl-α-D-[U-^14C]glucopyranoside uptake was quantitated using a TopCount scintillation counter (PerkinElmer, Inc.). Sodium-dependent glucopyranoside uptake was measured by subtracting the values obtained with sodium-free buffer from those obtained using sodium buffer (average of triplicate determinations).

[2] = molecular target: T2, human SGLT1 (Homo sapiens, UniProt P13866); assay: Methyl-α-D-[U-14C]glucopyranoside uptake assay, COS-7 cells expressing human SGLT1; format: cell-based; conditions: COS-7 cells expressing human SGLT1, 2 h incubation
T2 construct: Full-length human SGLT1 cDNA on pDream2.1 expression vector was obtained from GenScript Corporation; host or cells: COS-7 cells (American Type Culture Collection)
T2 sequence (P13866 1-664): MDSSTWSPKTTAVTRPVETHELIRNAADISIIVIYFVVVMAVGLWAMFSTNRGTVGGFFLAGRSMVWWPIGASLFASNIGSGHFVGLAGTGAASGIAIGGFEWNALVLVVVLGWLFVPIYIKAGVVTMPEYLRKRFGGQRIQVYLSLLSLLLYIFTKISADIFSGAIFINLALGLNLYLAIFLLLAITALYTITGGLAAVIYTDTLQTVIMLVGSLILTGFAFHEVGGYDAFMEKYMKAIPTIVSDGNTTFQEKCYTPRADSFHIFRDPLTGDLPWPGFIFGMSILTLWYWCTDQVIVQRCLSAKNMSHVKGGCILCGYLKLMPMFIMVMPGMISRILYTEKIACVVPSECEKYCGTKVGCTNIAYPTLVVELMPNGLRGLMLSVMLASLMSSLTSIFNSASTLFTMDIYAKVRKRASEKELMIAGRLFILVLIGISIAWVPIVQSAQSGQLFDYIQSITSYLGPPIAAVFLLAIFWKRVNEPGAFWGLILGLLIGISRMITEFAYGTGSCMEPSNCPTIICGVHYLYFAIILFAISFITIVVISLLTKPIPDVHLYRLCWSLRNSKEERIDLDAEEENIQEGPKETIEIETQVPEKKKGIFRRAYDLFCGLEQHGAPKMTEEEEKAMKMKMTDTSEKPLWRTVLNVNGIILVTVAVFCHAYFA
Description: Full-length human SGLT1 cDNA on pDream2.1 expression vector was obtained from GenScript Corporation and propagated in Escherichia coli strain DH5α using Luria-Bertani (LB) medium containing ampicillin. Plasmid DNA was isolated using the QIAGEN Plasmid Midi Kit (QIAGEN Inc.). […] Transfected cells were stored in DMEM containing 10% dimethyl sulfoxide (DMSO) at −80° C.
as §1

[3] = without human serum (symbols without parentheses)
[4] = with 25% human serum (symbols in parentheses)

Row | IC50 [1, 3] | IC50 [2, 3] | IC50 [1, 4] | IC50 [2, 4] | Compound
1 | < 1000 nM | 1000 to 10000 nM | – | – | CCc1ccc(Cc2cc([C@@H]3O[C@H](CO)[C@@H](O)[C@H](O)[C@H]3O)c(COCC(C)F)cc2Cl)cc1 (stereo partly drawn) [Compound T, (2S,3R,4R,5S,6R)-2-(4-chloro-5-(4-ethylbenzyl)-2-((2-fluoropropoxy)methyl)phenyl)-6-(hydroxymethyl)tetrahydro-2H-pyran-3,4,5-triol]
2 | < 1000 nM | 1000 to 10000 nM | – | – | CCc1ccc(Cc2cc([C@@H]3O[C@H](CO)[C@@H](O)[C@H](O)[C@H]3O)c(CCOCCO)cc2Cl)cc1 [Compound AG, (2S,3R,4R,5S,6R)-2-(4-chloro-5-(4-ethylbenzyl)-2-(2-(2-hydroxyethoxy)ethyl)phenyl)-6-(hydroxymethyl)tetrahydro-2H-pyran-3,4,5-triol]
3 | < 1000 nM | > 10000 nM | – | – | C=CCOCc1cc(Cl)c(Cc2ccc(CC)cc2)cc1[C@@H]1O[C@H](CO)[C@@H](O)[C@H](O)[C@H]1O [Compound I, (2S,3R,4R,5S,6R)-2-(2-(allyloxymethyl)-4-chloro-5-(4-ethylbenzyl)phenyl)-6-(hydroxymethyl)tetrahydro-2H-pyran-3,4,5-triol]
4 | – | – | < 1000 nM | > 10000 nM | C=CCOCc1cc(Cl)c(Cc2ccc(OCC=C)cc2)cc1[C@@H]1O[C@H](CO)[C@@H](O)[C@H](O)[C@H]1O [Compound BB, (2S,3R,4R,5S,6R)-2-(5-(4-(allyloxy)benzyl)-2-(allyloxymethyl)-4-chlorophenyl)-6-(hydroxymethyl)tetrahydro-2H-pyran-3,4,5-triol]
5 | – | – | < 1000 nM | 1000 to 10000 nM | CCOc1ccc(Cc2cc([C@@H]3O[C@H](CO)[C@@H](O)[C@H](O)[C@H]3O)c(CCOCCF)cc2Cl)cc1 [Compound BH, (2S,3R,4R,5S,6R)-2-(4-chloro-5-(4-ethoxybenzyl)-2-(2-(2-fluoroethoxy)ethyl)phenyl)-6-(hydroxymethyl)tetrahydro-2H-pyran-3,4,5-triol]
6 | – | – | < 1000 nM | > 10000 nM | CC#CCOCc1cc(Cl)c(Cc2ccc(O)cc2)cc1[C@@H]1O[C@H](CO)[C@@H](O)[C@H](O)[C@H]1O [Compound BC, (2S,3R,4R,5S,6R)-2-(2-((but-2-ynyloxy)methyl)-4-chloro-5-(4-hydroxybenzyl)phenyl)-6-(hydroxymethyl)tetrahydro-2H-pyran-3,4,5-triol]
7 | < 1000 nM | > 10000 nM | – | – | CCc1ccc(Cc2cc([C@@H]3O[C@H](CO)[C@@H](O)[C@H](O)[C@H]3O)c(CCOCC(F)F)cc2Cl)cc1 [Compound AI, (2S,3R,4R,5S,6R)-2-(4-chloro-2-(2-(2,2-difluoroethoxy)ethyl)-5-(4-ethylbenzyl)phenyl)-6-(hydroxymethyl)tetrahydro-2H-pyran-3,4,5-triol]
8 | < 1000 nM | > 10000 nM | – | – | C#CCOCCc1cc(Cl)c(Cc2ccc(OCC)cc2)cc1[C@@H]1O[C@H](CO)[C@@H](O)[C@H](O)[C@H]1O [Compound AO, (2S,3R,4R,5S,6R)-2-(4-chloro-5-(4-ethoxybenzyl)-2-(2-(prop-2-ynyloxy)ethyl)phenyl)-6-(hydroxymethyl)tetrahydro-2H-pyran-3,4,5-triol]
9 | < 1000 nM | > 10000 nM | – | – | CCc1ccc(Cc2cc([C@@H]3O[C@H](CO)[C@@H](O)[C@H](O)[C@H]3O)c(COCCF)cc2Cl)cc1 [Compound BZ, (2S,3R,4R,5S,6R)-2-(4-chloro-5-(4-ethylbenzyl)-2-((2-fluoroethoxy)methyl)phenyl)-6-(hydroxymethyl)tetrahydro-2H-pyran-3,4,5-triol]
10 | < 1000 nM | > 10000 nM | – | – | CCc1ccc(Cc2cc([C@@H]3O[C@H](CO)[C@@H](O)[C@H](O)[C@H]3O)c(COCC(C)(F)F)cc2Cl)cc1 [Compound CB, (2S,3R,4R,5S,6R)-2-(4-chloro-2-((2,2-difluoropropoxy)methyl)-5-(4-ethylbenzyl)phenyl)-6-(hydroxymethyl)tetrahydro-2H-pyran-3,4,5-triol]
11 | < 1000 nM | > 10000 nM | – | – | CCc1ccc(Cc2cc([C@@H]3O[C@H](CO)[C@@H](O)[C@H](O)[C@H]3O)c(COCC(C)=O)cc2Cl)cc1 [Compound K, 1-(5-chloro-4-(4-ethylbenzyl)-2-((2S,3R,4R,5S,6R)-3,4,5-trihydroxy-6-(hydroxymethyl)tetrahydro-2H-pyran-2-yl)benzyloxy)propan-2-one]
12 | < 1000 nM | > 10000 nM | – | – | CCc1ccc(Cc2cc([C@@H]3O[C@H](CO)[C@@H](O)[C@H](O)[C@H]3O)c(COCC(O)COC)cc2Cl)cc1 (stereo partly drawn) [Compound W, (2S,3R,4R,5S,6R)-2-(4-chloro-5-(4-ethylbenzyl)-2-((2-hydroxy-3-methoxypropoxy)methyl)phenyl)-6-(hydroxymethyl)tetrahydro-2H-pyran-3,4,5-triol]
13 | < 1000 nM | > 10000 nM | – | – | C=CCOCCOc1cc(Cl)c(Cc2ccc(CC)cc2)cc1[C@@H]1O[C@H](CO)[C@@H](O)[C@H](O)[C@H]1O [Compound AW, (2S,3R,4R,5S,6R)-2-(2-(2-(allyloxy)ethoxy)-4-chloro-5-(4-ethylbenzyl)phenyl)-6-(hydroxymethyl)tetrahydro-2H-pyran-3,4,5-triol]
14 | < 1000 nM | > 10000 nM | – | – | C#CCOCc1cc(Cl)c(Cc2ccc(CC)cc2)cc1[C@@H]1O[C@H](CO)[C@@H](O)[C@H](O)[C@H]1O [Compound N, (2S,3R,4R,5S,6R)-2-(4-chloro-5-(4-ethylbenzyl)-2-((prop-2-ynyloxy)methyl)phenyl)-6-(hydroxymethyl)tetrahydro-2H-pyran-3,4,5-triol]
15 | – | – | < 1000 nM | > 10000 nM | CC#CCOCCCc1cc(Cl)c(Cc2ccc(OCC)cc2)cc1[C@@H]1O[C@H](CO)[C@@H](O)[C@H](O)[C@H]1O [Compound BO, (2S,3R,4R,5S,6R)-2-(2-(3-(but-2-ynyloxy)propyl)-4-chloro-5-(4-ethoxybenzyl)phenyl)-6-(hydroxymethyl)tetrahydro-2H-pyran-3,4,5-triol]
